Measurements reported in patent publication US20260000642A1 (Tay Therapeutics Limited, priority 2022, published 2026).

Assays:
[1] = Sprague-Dawley rat pharmacokinetics (IV and PO); assay type: in vivo; conditions: male Sprague-Dawley rats, cassette mode, Method 1; for IV T1/2: IV 1 mg/kg
Text: BET protein inhibitors with a long half-life and good oral bioavailability in in vivo DMPK parameters are promising oral drug candidates. Some of the exemplary compounds of the current disclosure have a long half-life and good oral bioavailability in in vivo DMPK parameters in the Sprague-Dawley rat following intravenous (IV) and oral (PO) dosing. The experimental methods and results (Table 5) are provided hereinafter.
Sprague-Dawley Rat Pharmacokinetics, Method 1
Compounds were formulated in 5% DMSO, 40% PEG-400, 55% Milli-Q water at a concentration of 0.2 mg/mL for IV and at 0.5 mg/mL for PO. Two male Sprague-Dawley rats per arm were dosed with up to 5 compounds in cassette mode, which each compound being dosed at 1 mg/kg IV and 5 mg/kg PO. Blood was sampled at various timepoints and plasma isolated. 50 μL of plasma with 5 μL of blank Sprague-Dawley rat plasma were added to 200 μL of acetonitrile containing IS mixture. The samples were vortexed for 30 s. After centrifugation at 4 degrees Celsius, 3900 rpm for 15 min, the supernatant was diluted 3 times with water. 20 μL of diluted supernatant was injected into the LC/MS/MS system for quantitative analysis and concentration of analyte determined by comparison with matrix matched standard curve. WinNonlin (Phoenix™, version 8.3) or other similar software may be used for pharmacokinetic calculations.

[2] = system: collagen-induced arthritis in Lewis rats; assay: Collagen-induced arthritis (CIA) model in rats: body weight, paw volume, clinical scores, clinical observations; conditions: for Average animal paw volume percent change / Average detailed clinical score, left forelimb / Average detailed clinical score, left hind limb / Average detailed clinical score, right forelimb / Average detailed clinical score, right hind limb / Average detailed clinical score, score / Mean overall clinical score ± SD / animals showing signs of disease (of 8): CIA rats; for Mean animal paw volume (mL) ± SD: group mean, CIA + reference compound (Groups 3, 4); for animals showing signs of disease (of 8): daily P.O. As to Detailed Clinical Scores, left forelimb: key of the grades not given here. As to Detailed Clinical Scores, left hind limb: key of the grades not given here. As to Detailed Clinical Scores, right forelimb: key of the grades not given here. As to Detailed Clinical Scores, right hind limb: key of the grades not given here. As to Detailed Clinical Scores, score: key of the grades not given here.
[3] = system: collagen-induced arthritis in Lewis rats; assay: CIA model: histopathologic analysis of H&E-stained hind limbs; assay type: in vivo, Lewis rat; conditions: CIA rats
Text: Hind limbs were collected following euthanasia, with the left limb being used for H&E staining.
H&E-stained slides of designated tissues from animals were transferred to an independent pathologist for microscopic evaluation (SPFBio). Samples were assigned the histologic grades based on the severity of change from tissue where CIA was not induced. Histology grades assigned were as follows: grade 1 (minimal change), grade 2 (mild change), grade 3 (moderate change), grade 4 (marked change), and grade 5 (severe change).
Moderate inflammation was also associated with increased edema fluid, fibrin, and cellular debris. Marked mixed cell inflammation was characterized by dense, widespread accumulations of neutrophils and macrophages with lesser number of lymphocytes within one or more joint spaces, synovium and periarticular soft tissues. Marked inflammation was also associated with abundant edema fluid, fibrin, and cellular debris.
Marked granulation tissue (pannus) was associated with inflammation and was characterized by widespread fibrovascular connective tissue that expanded/replaced the periarticular soft tissues of one or more joints, extended into/expanded joint spaces, was contiguous with areas of erosion/ulcer in articular cartilage and/or increased eroded surface of bone, and variably extended along the diaphysis.
Instances of minimal increased eroded surface were not associated with fragments of bone contiguous and/or surrounded by granulation tissue. […] In some areas, increased eroded surfaces were contiguous with areas of erosion/ulcer in the articular cartilages. Instance of marked increased eroded surface were often associated with fragments of bone contiguous with and/or surrounded by granulation tissue.
This observation was typically most pronounced at joint margins (transition zone). The ulceration was often associated with inflammation and granulation tissue extending through the defect to the subchondral bone.
Marked increased periosteal bone (periosteal bone formation) was characterized by extensive areas of increased bone matrix and numerous prominent osteoblasts lining trabecular surfaces along the metaphysis and/or diaphysis of one or more bones. In some areas, increased periosteal bone was contiguous with increased eroded surface and/or erosion/ulcer at articular cartilage.

CCNC(=O)c1cc(OC(C)c2ccc(Cl)cc2)c(C(=O)NC)[nH]1 (single isomer, unassigned) [Example 18, 3-(1-(4-chlorophenyl)ethoxy)-N^5-ethyl-N^2-methyl-1H-pyrrole-2,5-dicarboxamide]
IV T1/2 [1]: 66 min
PO F (%) ([1]; PO 5 mg/kg (IV 1 mg/kg)): 30%

CCNC(=O)c1cc(OC(C)c2ccccc2F)c(C(=O)NC)[nH]1 (single isomer, unassigned) [Example 20, N^5-ethyl-3-(1-(2-fluorophenyl)ethoxy)-N^2-methyl-1H-pyrrole-2,5-dicarboxamide]
IV T1/2 [1]: 24 min
PO F (%) ([1]; PO 5 mg/kg (IV 1 mg/kg)): 46%

CNC(=O)c1[nH]c(C(=O)N[C@H]2CC[C@H](O)CC2)cc1OC(C)c1ccc(Cl)cc1F (single isomer, unassigned) [Example 38, 3-(1-(4-chloro-2-fluorophenyl)ethoxy)-N^5-(trans-4-hydroxycyclohexyl)-N^2-methyl-1H-pyrrole-2,5-dicarboxamide]
IV T1/2 [1]: 84 min
PO F (%) ([1]; PO 5 mg/kg (IV 1 mg/kg)): 66%

CCNC(=O)c1cc(OC(C)c2ccc(Cl)cc2F)c(C(=O)NC)[nH]1 (single isomer, unassigned) [Example 41, 3-(1-(4-chloro-2-fluorophenyl)ethoxy)-N^5-ethyl-N^2-methyl-1H-pyrrole-2,5-dicarboxamide]
IV T1/2 [1]: 18 min
PO F (%) ([1]; PO 5 mg/kg (IV 1 mg/kg)): 69%

CNC(=O)c1[nH]c(C(=O)N[C@H]2CC[C@H](O)CC2)cc1OC(C)c1ccccc1 (single isomer, unassigned) [Example 98, N^5-(trans-4-hydroxycyclohexyl)-N^2-methyl-3-(1-phenylethoxy)-1H-pyrrole-2,5-dicarboxamide]
bioavailability ([1]; rat, plasma, PO 5 mg/kg (IV 1 mg/kg), read-out: PO F (%)): 31%

C[C@@H]1C[C@H]2[C@@H]3CCC4=CC(=O)C=C[C@]4(C)[C@@]3(F)[C@@H](O)C[C@]2(C)[C@@]1(O)C(=O)CO [Dex]
Average animal paw volume percent change ([2]; Day 0, L hind paw): 0.00%
Mean animal paw volume (mL) ± SD ([2]; Day 0, L paw): 1.33 mL
Average animal paw volume percent change ([2]; Day 0, R hind paw): 0.00%
Mean animal paw volume (mL) ± SD ([2]; Day 0, R paw): 1.33 mL
Average detailed clinical score, left forelimb ([2]; Day 0): 0.00
Average detailed clinical score, left hind limb ([2]; Day 0): 0.00
Average detailed clinical score, right forelimb ([2]; Day 0): 0.00
Average detailed clinical score, right hind limb ([2]; Day 0): 0.00
Average detailed clinical score, score ([2]; Day 0): 0.00
Mean overall clinical score ± SD ([2]; Day 0): 0 ± 0
Mean animal paw volume (mL) ± SD ([2]; Day 6, L paw): 1.29 mL
Mean animal paw volume (mL) ± SD ([2]; Day 6, R paw): 1.29 mL
Average detailed clinical score, left forelimb ([2]; Day 6): 0.00
Average detailed clinical score, left hind limb ([2]; Day 6): 0.00
Average detailed clinical score, right forelimb ([2]; Day 6): 0.00
Average detailed clinical score, right hind limb ([2]; Day 6): 0.00
Average detailed clinical score, score ([2]; Day 6): 0.00
Mean overall clinical score ± SD ([2]; Day 6): 0 ± 0
Mean animal paw volume (mL) ± SD ([2]; Day 12, L paw): 1.27 mL
Mean animal paw volume (mL) ± SD ([2]; Day 12, R paw): 1.26 mL
Average detailed clinical score, left forelimb ([2]; Day 12): 0.00
Average detailed clinical score, left hind limb ([2]; Day 12): 0.00
Average detailed clinical score, right forelimb ([2]; Day 12): 0.00
Average detailed clinical score, right hind limb ([2]; Day 12): 0.00
Average detailed clinical score, score ([2]; Day 12): 0.00
Mean overall clinical score ± SD ([2]; Day 12): 0 ± 0
Mean animal paw volume (mL) ± SD ([2]; Day 13, L paw): 1.28 mL
Mean animal paw volume (mL) ± SD ([2]; Day 13, R paw): 1.28 mL
Average detailed clinical score, left forelimb ([2]; Day 13): 0.00
Average detailed clinical score, left hind limb ([2]; Day 13): 0.00
Average detailed clinical score, right forelimb ([2]; Day 13): 0.00
Average detailed clinical score, right hind limb ([2]; Day 13): 0.00
Average detailed clinical score, score ([2]; Day 13): 0.00
Mean overall clinical score ± SD ([2]; Day 13): 0 ± 0
Average animal paw volume percent change ([2]; Day 14, L hind paw): −4.60%
Mean animal paw volume (mL) ± SD ([2]; Day 14, L paw): 1.27 mL
Mean animal paw volume (mL) ± SD ([2]; Day 14, R paw): 1.26 mL
Average detailed clinical score, left forelimb ([2]; Day 14): 0.00
Average detailed clinical score, left hind limb ([2]; Day 14): 0.00
Average detailed clinical score, right forelimb ([2]; Day 14): 0.00
Average detailed clinical score, right hind limb ([2]; Day 14): 0.00
Average detailed clinical score, score ([2]; Day 14): 0.00
Mean overall clinical score ± SD ([2]; Day 14): 0 ± 0
Mean animal paw volume (mL) ± SD ([2]; Day 15, L paw): 1.26 mL
Mean animal paw volume (mL) ± SD ([2]; Day 15, R paw): 1.26 mL
Average detailed clinical score, left forelimb ([2]; Day 15): 0.00
Average detailed clinical score, left hind limb ([2]; Day 15): 0.00
Average detailed clinical score, right forelimb ([2]; Day 15): 0.00
Average detailed clinical score, right hind limb ([2]; Day 15): 0.00
Average detailed clinical score, score ([2]; Day 15): 0.00
Mean overall clinical score ± SD ([2]; Day 15): 0 ± 0
Mean animal paw volume (mL) ± SD ([2]; Day 18, L paw): 1.29 mL
Mean animal paw volume (mL) ± SD ([2]; Day 18, R paw): 1.29 mL
Average detailed clinical score, left forelimb ([2]; Day 18): 0.00
Average detailed clinical score, left hind limb ([2]; Day 18): 0.00
Average detailed clinical score, right forelimb ([2]; Day 18): 0.00
Average detailed clinical score, right hind limb ([2]; Day 18): 0.00
Average detailed clinical score, score ([2]; Day 18): 0.00
Mean overall clinical score ± SD ([2]; Day 18): 0 ± 0
Mean animal paw volume (mL) ± SD ([2]; Day 19, L paw): 1.29 mL
Mean animal paw volume (mL) ± SD ([2]; Day 19, R paw): 1.28 mL
Average detailed clinical score, left forelimb ([2]; Day 19): 0.00
Average detailed clinical score, left hind limb ([2]; Day 19): 0.00
Average detailed clinical score, right forelimb ([2]; Day 19): 0.00
Average detailed clinical score, right hind limb ([2]; Day 19): 0.00
Average detailed clinical score, score ([2]; Day 19): 0.00
Mean overall clinical score ± SD ([2]; Day 19): 0 ± 0
Mean animal paw volume (mL) ± SD ([2]; Day 21, L paw): 1.28 mL
Mean animal paw volume (mL) ± SD ([2]; Day 21, R paw): 1.29 mL
Average detailed clinical score, left forelimb ([2]; Day 21): 0.00
Average detailed clinical score, left hind limb ([2]; Day 21): 0.00
Average detailed clinical score, right forelimb ([2]; Day 21): 0.00
Average detailed clinical score, right hind limb ([2]; Day 21): 0.00
Average detailed clinical score, score ([2]; Day 21): 0.00
Mean overall clinical score ± SD ([2]; Day 21): 0 ± 0

CNC(=O)c1cc(C(=O)NC2CC2)cn(Cc2ccccc2)c1=O [GSK620]
erosion/ulcer in the articular cartilage ([3]; daily P.O. (Group 4)): mild to moderate
granulation tissue (pannus) ([3]; daily P.O. (Group 4)): mild to moderate
increased eroded surface of bone (bone resorption) ([3]; daily P.O. (Group 4)): minimal to moderate
increased periosteal bone (periosteal bone formation) ([3]; daily P.O. (Group 4)): mild to moderate
mixed cell inflammation ([3]; daily P.O. (Group 4)): moderate
pathologic observations after microscopic evaluation (overall) ([3]; daily P.O. for 21 days): at a lower level relative to samples from animals in the CIA-induced group
animals showing signs of disease (of 8) ([2]; day 12): No animals
animals showing signs of disease (of 8) ([2]; day 13): 1/8
animals showing signs of disease (of 8) ([2]; day 14): 5/8
animals showing signs of disease (of 8) ([2]; day 15): 7/8
animals showing signs of disease (of 8) ([2]; day 18): all animals
Detailed Clinical Scores, left forelimb ([2]; Day 0, CIA, per animal ID): 0
Detailed Clinical Scores, left hind limb ([2]; Day 0, CIA, per animal ID): 0
Detailed Clinical Scores, right forelimb ([2]; Day 0, CIA, per animal ID): 0
Detailed Clinical Scores, right hind limb ([2]; Day 0, CIA, per animal ID): 0
Detailed Clinical Scores, score ([2]; Day 0, CIA, per animal ID): 0
Detailed Clinical Scores, left forelimb ([2]; Day 6, CIA, per animal ID): 0
Detailed Clinical Scores, right forelimb ([2]; Day 6, CIA, per animal ID): 0
Detailed Clinical Scores, left forelimb ([2]; Day 12, CIA, per animal ID): 0
Detailed Clinical Scores, right forelimb ([2]; Day 12, CIA, per animal ID): 0
